Assay results published in patent US20260285850A1, “SUBSTITUTED OXAZOLIDINONES AND IMIDAZOLINONES AS HERBICIDES” (FMC CORPORATION, priority 2023, published 2026).

Experiments:
Assay type in all cases: in vivo
[1] = test system: ragweed (common ragweed, Ambrosia artemisiifolia); assay: Test A postemergence application, visual injury rating 0-100
Procedure, shortened: (§1)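 Compound in a non-phytotoxic, surfactant-containing solvent is applied either as a directed soil spray before seedlings emerge or onto emerged plants 2-10 cm tall; pots hold a loam-sand blend. Plants grow 10 days under greenhouse conditions and are rated by eye against untreated controls (0 no effect, 100 complete control).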

[2] = test system: blackgrass (Alopecurus myosuroides); assay: as above
Procedure, shortened: as §1

[3] = test system: ryegrass, Italian (italian ryegrass, Lolium multiflorum); assay: as above
Procedure, shortened: as §1

[4] = test system: wheat (Triticum aestivum); assay: as above
Procedure, shortened: as §1

kochia (Bassia scoparia) [5] = assay: as above
Procedure, shortened: as §1

[6] = test system: green foxtail (Setaria viridis); assay: as above
Procedure, shortened: as §1

corn (Zea mays) [7] = assay: as above
Procedure, shortened: as §1

[8] = test system: oat, wild (wild oat, Avena fatua); assay: as above
Procedure, shortened: as §1

soybean (Glycine max) [9] = assay: as above
Procedure, shortened: as §1

[10] = test system: palmer (palmer amaranth, palmer pigweed, Amaranthus palmeri); assay: as above
Procedure, shortened: as §1

[11] = test system: galium (catchweed bedstraw, Galium aparine); assay: as above; settings: Postemergence, 16 g ai/ha, greenhouse 10 days; 0 no effect, 100 complete control
Procedure, shortened: as §1

[12] = test system: horseweed (Erigeron canadensis); assay: as above
Procedure, shortened: as §1

[13] = test system: barnyardgrass (Echinochloa crus-galli); assay: as above
Procedure, shortened: as §1

rice (Oryza sativa) = assay: Test B flooded paddy test, visual plant response rating 0-100; settings: 250 g ai/ha, Flood, applied to paddy water, evaluated after 13 days
Procedure, shortened: (§2)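 Each species was raised to two leaves before flooding to a 3 cm depth and dosing the water with compound. Injury was assessed by eye after 13 days under greenhouse conditions.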

[14] = test system: ducksalad (Heteranthera limosa); assay: as above; settings: 250 g ai/ha, Flood, applied to paddy water, evaluated after 13 days
Procedure, shortened: as §2

[15] = test system: sedge, umbrella (small-flower umbrella sedge, Cyperus difformis); assay: as above; settings: 250 g ai/ha, Flood, applied to paddy water, evaluated after 13 days
Procedure, shortened: as §2

[16] = test system: barnyardgrass (Echinochloa crusgalli); assay: as above; settings: 250 g ai/ha, Flood, applied to paddy water, evaluated after 13 days
Procedure, shortened: as §2

[17] = test system: ragweed (common ragweed, Ambrosia artemisiifolia); assay: Test A preemergence soil spray, visual injury rating 0-100; settings: 10 days
Procedure, shortened: as §1

[18] = test system: blackgrass (Alopecurus myosuroides); assay: as above; settings: 10 days
Procedure, shortened: as §1

[19] = test system: ryegrass, Italian (italian ryegrass, Lolium multiflorum); assay: as above; settings: 10 days
Procedure, shortened: as §1

[20] = test system: wheat (Triticum aestivum); assay: as above; settings: 10 days
Procedure, shortened: as §1

kochia (Bassia scoparia) [21] = assay: as above; settings: 10 days
Procedure, shortened: as §1

[22] = test system: green foxtail (Setaria viridis); assay: as above; settings: 10 days
Procedure, shortened: as §1

corn (Zea mays) [23] = assay: as above; settings: 10 days
Procedure, shortened: as §1

[24] = test system: oat, wild (wild oat, Avena fatua); assay: as above; settings: 10 days
Procedure, shortened: as §1

soybean (Glycine max) [25] = assay: as above; settings: 10 days
Procedure, shortened: as §1

[26] = test system: palmer (palmer amaranth, palmer pigweed, Amaranthus palmeri); assay: as above; settings: 10 days
Procedure, shortened: as §1

[27] = test system: barnyardgrass (Echinochloa crus-galli); assay: as above; settings: 10 days
Procedure, shortened: as §1

[28] = 62 g ai/ha, postemergence, 10 days, 0 = no effect, 100 = complete control
[29] = Postemergence, 16 g ai/ha, greenhouse 10 days, 0 no effect, 100 complete control
[30] = 62 g ai/ha, 0 = no effect, 100 = complete control

CC1(C(=O)NC2CC=C(C(=O)OCC(F)F)C2)CN(c2cc(Cl)cc(Cl)c2)C(=O)O1 (stereo not drawn) [Compound 153]
Ragweed plant response rating (0-100) [1, 28]: 0
Ragweed plant response rating (0 to 100 scale) [1, 29]: 0
Blackgrass plant response rating (0-100) [2, 28]: 90
Blackgrass plant response rating (0 to 100 scale) [2, 29]: 80
Ryegrass, Italian plant response rating (0-100) [3, 28]: 0
Ryegrass, Italian plant response rating (0 to 100 scale) [3, 29]: 0
Wheat plant response rating (0-100) [4, 28]: 0
Wheat plant response rating (0 to 100 scale) [4, 29]: 0
Kochia plant response rating (0-100) (kochia (Bassia scoparia) [5]; [28]): 0
Kochia plant response rating (0 to 100 scale) (kochia (Bassia scoparia) [5]; [29]): 0
Foxtail, Green plant response rating (0-100) [6, 28]: 0
Foxtail, Green plant response rating (0 to 100 scale) [6, 29]: 0
Corn plant response rating (0-100) (corn (Zea mays) [7]; [28]): 0
Corn plant response rating (0 to 100 scale) (corn (Zea mays) [7]; [29]): 0
Oat, Wild plant response rating (0-100) [8, 28]: 0
Oat, Wild plant response rating (0 to 100 scale) [8, 29]: 0
Soybean plant response rating (0-100) (soybean (Glycine max) [9]; [28]): 0
Soybean plant response rating (0 to 100 scale) (soybean (Glycine max) [9]; [29]): 0
Pigweed, Palmer plant response rating (0-100) [10, 28]: 0
Pigweed, Palmer plant response rating (0 to 100 scale) [10, 29]: 0
Galium plant response rating (0 to 100 scale) [11]: 0
Horseweed plant response rating (0-100) [12, 28]: 0
Horseweed plant response rating (0 to 100 scale) [12, 29]: 20
Barnyardgrass plant response rating (0-100) [13, 28]: 0
Barnyardgrass plant response rating (0 to 100 scale) [13, 29]: 0
Plant response rating, Rice (0 to 100 scale, 0 is no effect and 100 is complete control) (rice (Oryza sativa)): 0
Plant response rating, Ducksalad (0 to 100 scale, 0 is no effect and 100 is complete control) [14]: 0
Plant response rating, Sedge, Umbrella (0 to 100 scale, 0 is no effect and 100 is complete control) [15]: 0
Plant response rating, Barnyardgrass (0 to 100 scale, 0 is no effect and 100 is complete control) [16]: 0
Ragweed plant response rating ([17]; 16 g ai/ha, 0 to 100 scale): 0
Ragweed plant response rating (0-100) [17, 30]: 0
Blackgrass plant response rating ([18]; 16 g ai/ha, 0 to 100 scale): 0
Blackgrass plant response rating (0-100) [18, 30]: 0
Ryegrass, Italian plant response rating ([19]; 16 g ai/ha, 0 to 100 scale): 0
Ryegrass, Italian plant response rating (0-100) [19, 30]: 0
Wheat plant response rating ([20]; 16 g ai/ha, 0 to 100 scale): 0
Wheat plant response rating (0-100) [20, 30]: 0
Kochia plant response rating (kochia (Bassia scoparia) [21]; 16 g ai/ha, 0 to 100 scale): 0
Kochia plant response rating (0-100) (kochia (Bassia scoparia) [21]; [30]): 0
Foxtail, Green plant response rating ([22]; 16 g ai/ha, 0 to 100 scale): 0
Foxtail, Green plant response rating (0-100) [22, 30]: 0
Corn plant response rating (corn (Zea mays) [23]; 16 g ai/ha, 0 to 100 scale): 0
Corn plant response rating (0-100) (corn (Zea mays) [23]; [30]): 0
Oat, Wild plant response rating ([24]; 16 g ai/ha, 0 to 100 scale): 0
Oat, Wild plant response rating (0-100) [24, 30]: 0
Soybean plant response rating (soybean (Glycine max) [25]; 16 g ai/ha, 0 to 100 scale): 0
Soybean plant response rating (0-100) (soybean (Glycine max) [25]; [30]): 10
Pigweed, Palmer plant response rating ([26]; 16 g ai/ha, 0 to 100 scale): 0
Pigweed, Palmer plant response rating (0-100) [26, 30]: 0
Barnyardgrass plant response rating ([27]; 16 g ai/ha, 0 to 100 scale): 0
Barnyardgrass plant response rating (0-100) [27, 30]: 20
